Measurements reported in paper PMC10294832, “Investigation of Naphthyl–Polyamine Conjugates as Antimicrobials and Antibiotic Enhancers” (Antibiotics, 2023).
Converted amounts (≈) assume the structure as drawn. “And” between values parts separate entries of the source, which are not always exact repeats. Equal values may be shown once.

Assays:
MRSA (ATCC 43300) [1] = tested on: MRSA (ATCC 43300); set-up: method as in PMID 36982955; conditions: earlier work; cited from earlier work
E. coli (ATCC 25922) [2] = tested on: E. coli (ATCC 25922); set-up: method as in PMID 36982955; conditions: earlier work; cited from earlier work
[3] = tested on: S. aureus (ATCC 25,923 or ATCC 29213); set-up: method as in PMID 36982955; conditions: earlier work; cited from earlier work
E. coli = tested on: E. coli; set-up: method as in PMID 15225864; conditions: novobiocin and erythromycin; weak effect; cited from earlier work
[4] = tested on: P. aeruginosa (ATCC 27853); set-up: method as in PMID 36982955; conditions: earlier work; cited from earlier work
S. aureus (ATCC 25923) [5] = assay: Real-time growth inhibition curves / MIC; format: cell-based; conditions: Staphylococcus aureus, ATCC25923, 18-hour mark of real-time growth curve
Description: (§1) To conduct a detailed analysis of the antibacterial activity and initial assessment of the mechanism of action, analogue 20f was selected due to its strong antibacterial properties, and because it was devoid of any observed cytotoxic or hemolytic effects. To evaluate the kinetics of antibacterial activity, real-time growth inhibition curves were measured for two Gram-positive bacteria (S. aureus (ATCC 25923), MRSA (CF-Marseille)) and the Gram-negative bacterium E. coli (ATCC 25922). […] These values corresponded to the inhibitory concentrations observed at the 18-hour mark in the real-time growth inhibition curve plots.
(§2) Solutions of compound 20f at concentrations of 2, 4, and 16 µg/mL were each tested in triplicate against S. aureus (ATCC 25923), MRSA (CF-Marseille), and E. coli (ATCC 25922) following previously reported protocols.

E. coli (ATCC 25922) [6] = assay: Real-time growth inhibition curves / MIC; format: cell-based; conditions: Escherichia coli, ATCC25922, 18-hour mark of real-time growth curve
Description: as §1, §2

E. coli (ATCC 25922) [7] = assay: Antimicrobial MIC, E. coli; format: cell-based, Escherichia coli; conditions: mean (n = 2)
In short: (§3)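 E. coli and P. aeruginosa susceptibility was determined in-house following previously reported protocols. C. albicans and C. neoformans were tested by the Community for Open Antimicrobial Drug Discovery (University of Queensland) using its standard protocols. Values are MICs.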

MRSA (CF-Marseille) [8] = assay: Real-time growth inhibition curves / MIC; format: cell-based, methicillin-resistant Staphylococcus aureus; conditions: Staphylococcus aureus, 18-hour mark of real-time growth curve
Description: as §1, §2

MRSA (ATCC 43300) [9] = assay: Antimicrobial MIC, MRSA; format: cell-based, methicillin-resistant Staphylococcus aureus; conditions: Staphylococcus aureus, MRSA (ATCC 43300); mean (n = 2); read-out: MIC MRSA
[10] = tested on: P. aeruginosa (ATCC 27853); assay: Enhancement of doxycycline activity; format: cell-based, Pseudomonas aeruginosa; conditions: for Dox/P.a: concentration required to restore doxycycline activity (combination MIC): doxycycline fixed at 4.5 µM (2 µg/mL); for Dox/P.a: concentration required to restore doxycycline activity (combination MIC) / Concentration of test compound required to restore doxycycline activity: P. aeruginosa (ATCC 27853); for Dox/P.a fold change: ratio between intrinsic MIC of test compound and combination MIC, doxycycline 4.5 µM, P. aeruginosa
Cytotoxicity assay = format: cell-based, human; conditions: human, HEK293 human embryonic kidney cells, concentration at 50% cytotoxicity on HEK293 cells; mean (n = 2)
Description: (§4) Cytotoxicity assays were conducted using the protocols previously reported.

[11] = tested on: K. pneumoniae (ATCC 700603); assay: Antimicrobial MIC, K. pneumoniae; format: cell-based; conditions: Klebsiella pneumoniae, ATCC700603, mean (n = 2)
C. albicans (ATCC 90028) = assay: Antifungal MIC, C. albicans; format: cell-based; conditions: Candida albicans, ATCC90028, mean (n = 2)
In short: as §3

[12] = tested on: P. aeruginosa (PAO1 or ATCC 27853); assay: Antimicrobial MIC, P. aeruginosa; format: cell-based; conditions: Pseudomonas aeruginosa; P. aeruginosa (PAO1 or ATCC 27853); mean (n = 3); read-out: MIC P. a
In short: as §3

human red blood cells = assay: Hemolytic assay; format: cell-based; conditions: concentration at 10% hemolytic activity on human red blood cells; mean (n = 2)
Description: Hemolysis assays were conducted using the protocols previously reported.

[13] = tested on: C. neoformans (ATCC 208821); assay: Antifungal MIC, C. neoformans; format: cell-based, Cryptococcus neoformans; conditions: Cryptococcus neoformans, ATCC208821, C. neoformans (ATCC 208821); mean (n = 2)
In short: as §3

E. coli (ATCC 25922) [14] = assay: Enhancement of erythromycin activity; format: cell-based, Escherichia coli; conditions: for Eryth/E.c: concentration required to restore erythromycin activity (combination MIC): erythromycin fixed at 10.9 µM (8 µg/mL), E. coli (ATCC 25922); for Eryth/E.c fold change: ratio between intrinsic MIC of test compound and combination MIC, erythromycin 10.9 µM, E. coli
Description: Restoring enhancer concentrations were determined using previously reported protocols.

[15] = tested on: S. aureus (ATCC 25,923 or ATCC 29213); assay: Antimicrobial MIC, S. aureus; format: cell-based, Staphylococcus aureus; conditions: Staphylococcus aureus, mean (n = 3)
In short: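 Antifungal values reflect testing at The University of Queensland's open antimicrobial discovery facility by its standard protocols. Antibacterial MICs were measured in-house, alongside reference antibiotics, by a published method.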

S. aureus (ATCC 25923) [16] = assay: Minimum bactericidal concentration test; format: cell-based; conditions: Staphylococcus aureus, ATCC25923, same value as MIC
Description: as §1
(§5) MBC’s were determined following previously reported protocols.

E. coli (ATCC 25922) [17] = assay: Minimum bactericidal concentration test; format: cell-based; conditions: Escherichia coli, ATCC25922, same value as MIC
Description: as §1, §5

[18] = tested on: A. baumannii (ATCC 19606); assay: Antimicrobial MIC, A. baumannii; format: cell-based, Acinetobacter baumannii; conditions: Acinetobacter baumannii, ATCC19606, A. baumannii (ATCC 19606); mean (n = 2)
MRSA (CF-Marseille) [19] = assay: Minimum bactericidal concentration test; format: cell-based, methicillin-resistant Staphylococcus aureus; conditions: Staphylococcus aureus, same value as MIC
Description: as §1, §5

[20] = tested on: HEK293 human embryonic kidney cells; assay: Cytotoxicity assay; format: cell-based; conditions: concentration at 50% cytotoxicity on HEK293 cells; mean (n = 2)
Description: as §4

[21] = Escherichia coli, ATCC25922, E. coli (ATCC 25922)

Structure (SMILES)	MIC (E. coli (ATCC 25922) [7]; [21]) [µM]	MIC (MRSA (ATCC 43300) [9]) [µM]	Dox/P.a: concentration required to restore doxycycline activity (combination MIC) [10] [µM]	MIC [11] [µM]	MIC (C. albicans (ATCC 90028)) [µM]	MIC [12] [µM]	MIC [13] [µM]	Eryth/E.c: concentration required to restore erythromycin activity (combination MIC) (E. coli (ATCC 25922) [14]) [µM]	MIC [15] [µM]	MIC [18] [µM]	melting point [°C]	Dox/P.a fold change [10] [fold]	IC50 (Cytotoxicity assay) [µM]	Hemolysis HC10 (human red blood cells) [µM]	Eryth/E.c fold change (E. coli (ATCC 25922) [14]) [fold]	other results
O=C(CC(c1ccccc1)(c1ccccc1)c1ccccc1)NCCCNCCCCCCCCNCCCNC(=O)CC(c1ccccc1)(c1ccccc1)c1ccccc1 [Compound 7]	–	–	–	–	–	–	–	–	–	–	–	–	–	–	–	MIC MRSA (MRSA (ATCC 43300) [1]): ≤ 0.24 µM; MIC Escherichia coli (E. coli (ATCC 25922) [2]): 7.6 µM (≈ 6.29 µg/mL); MIC Staphylococcus aureus [3]: 3.13 µM (≈ 2.59 µg/mL)
NCCCNCCCCNCCCNC(=O)Cc1cccc2ccccc12 [Compound 22, naphthylacetylspermine]	–	–	–	–	–	–	–	–	–	–	–	–	–	–	–	doses rendering E. coli sensitive to hydrophobic antibiotics (E. coli): 64 to 128 µg/mL
O=C(CC(c1ccccc1)c1ccccc1)NCCCNCCCCCCCCNCCCNC(=O)CC(c1ccccc1)c1ccccc1 [Compound 6]	–	–	–	–	–	–	–	–	–	–	–	–	–	–	–	MIC in combination, doxycycline vs. P. aeruginosa [4]: 12.5 µM; fold increase, doxycycline vs. P. aeruginosa [4]: 4 fold; MIC MRSA (MRSA (ATCC 43300) [1]): ≤ 0.28 µM; MIC Escherichia coli (E. coli (ATCC 25922) [2]): 2.2 µM (≈ 1.48 µg/mL); MIC Staphylococcus aureus [3]: 3.13 µM (≈ 2.11 µg/mL)
O=C(NCCCNCCCCNCCCNC(=O)c1ccc2ccccc2c1)c1ccc2ccccc2c1.O=C(O)C(F)(F)F.O=C(O)C(F)(F)F [Compound 19a, N^1,N^4-Bis(3-(2-naphthamido)propyl)butane-1,4-diaminium 2,2,2-trifluoroacetate]	271	43.3	16.9	> 43.3	> 43.3	677	21.7	4.2	34	> 43.3	132 to 135	–	26	>43.3	64	Concentration of test compound required to restore doxycycline activity ([10]; doxycycline concentration 2 µg/mL): 16.9 µM; Concentration of test compound required to restore doxycycline activity ([10]; doxycycline concentration 4 µg/mL): 8.5 µM; Concentration of test compound required to restore doxycycline activity ([10]; doxycycline concentration 6 µg/mL): 8.5 µM; Concentration of test compound required to restore doxycycline activity ([10]; doxycycline concentration 8 µg/mL): 4.2 µM; IC50 [20]: 26.4 µM

The next lines start with results.

MIC (E. coli (ATCC 25922) [7]; [21]) [µM]	MIC (MRSA (ATCC 43300) [9]) [µM]	Dox/P.a: concentration required to restore doxycycline activity (combination MIC) [10] [µM]	MIC [11] [µM]	MIC (C. albicans (ATCC 90028)) [µM]	MIC [12] [µM]	MIC [13] [µM]	Eryth/E.c: concentration required to restore erythromycin activity (combination MIC) (E. coli (ATCC 25922) [14]) [µM]	MIC [15] [µM]	MIC [18] [µM]	melting point [°C]	Structure (SMILES)	Dox/P.a fold change [10] [fold]	IC50 (Cytotoxicity assay) [µM]	Hemolysis HC10 (human red blood cells) [µM]	Eryth/E.c fold change (E. coli (ATCC 25922) [14]) [fold]	other results
6.3 to 12.5	≤ 0.25	12.6	> 32	> 32	> 100	≤ 0.25	3.15	3.12	> 32	–	O=C(CCC(=O)Nc1ccc2ccccc2c1)NCCCNCCCCCCCCCCCCNCCCNC(=O)CCC(=O)Nc1ccc2ccccc2c1.O=C(O)C(F)(F)F.O=C(O)C(F)(F)F [Compound 20f, N^1,N^12-Bis(3-(4-(naphthalen-2-ylamino)-4-oxobutanamido)propyl)dodecane-1,12-diaminium 2,2,2-trifluoroacetate]	> 8	> 32.2	>32.2	2	MIC (S. aureus (ATCC 25923) [5]): 3.15 µM and 3.13 µg/mL; MIC (E. coli (ATCC 25922) [6]): 6.29 µM and 6.25 µg/mL; MIC (E. coli (ATCC 25922) [7]; E. coli (ATCC 25922)): 6.3 µM; MIC (MRSA (CF-Marseille) [8]): 3.15 µM and 3.13 µg/mL; MBC (S. aureus (ATCC 25923) [16]): 3.15 µM and 3.13 µg/mL; MBC (E. coli (ATCC 25922) [17]): 6.29 µM and 6.25 µg/mL; MBC (MRSA (CF-Marseille) [19]): 3.13 µg/mL and 3.15 µM
300	0.256	300	> 32.8	> 32.8	300	> 32.8	300	200	> 32.8	178 to 180	O=C(CCC(=O)Nc1ccc(-c2ccccc2)cc1)NCCCNCCCCCCCNCCCNC(=O)CCC(=O)Nc1ccc(-c2ccccc2)cc1.O=C(O)C(F)(F)F.O=C(O)C(F)(F)F [Compound 21c, N^1,N^7-Bis(3-(4-([1,1’-biphenyl]-4-ylamino)-4-oxobutanamido)propyl)heptane-1,7-diaminium 2,2,2-trifluoroacetate]	1	> 32.8	>32.8	1	–
300	0.268	300	> 34.3	> 34.3	300	> 34.3	300	300	> 34.3	203 to 205	O=C(CCC(=O)Nc1ccc(-c2ccccc2)cc1)NCCCNCCCCNCCCNC(=O)CCC(=O)Nc1ccc(-c2ccccc2)cc1.O=C(O)C(F)(F)F.O=C(O)C(F)(F)F [Compound 21a, N^1,N^4-Bis(3-(4-([1,1’-biphenyl]-4-ylamino)-4-oxobutanamido)propyl)butane-1,4-diaminium 2,2,2-trifluoroacetate]	1	> 34.3	31.4	1	–
